Ki, IC50 and EC50 data for 15 molecules are collected here from patent US20070232681A1, “Compounds Having Crth2 Antagonist Activity” (Oxagen Limited, priority 2003, published 2007).

Test [1] concerns the target T1, CRTH2 (Homo sapiens, UniProt Q9Y5Y4).
T1 construct: expressed in transfected cells; host or cells: Chinese Hamster Ovary (CHO) cells, G418 selected
T1 sequence (Q9Y5Y4 1-395): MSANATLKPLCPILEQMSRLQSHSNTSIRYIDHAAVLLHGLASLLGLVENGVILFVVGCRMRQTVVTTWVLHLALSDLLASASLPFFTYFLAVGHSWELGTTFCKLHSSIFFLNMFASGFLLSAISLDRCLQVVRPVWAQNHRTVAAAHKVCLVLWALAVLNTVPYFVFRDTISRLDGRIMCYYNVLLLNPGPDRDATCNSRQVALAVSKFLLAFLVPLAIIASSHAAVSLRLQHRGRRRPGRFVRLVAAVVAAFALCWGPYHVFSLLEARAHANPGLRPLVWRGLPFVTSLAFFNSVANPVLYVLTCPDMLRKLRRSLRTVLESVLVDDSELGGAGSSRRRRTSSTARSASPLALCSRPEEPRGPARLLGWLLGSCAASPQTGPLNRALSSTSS
Description: [3H]PGD2 radioligand binding on CHO/CRTH2 cell membranes. The note with it: competition versus [3H]PGD2, CHO/CRTH2 membranes. The method, then: (§1) Chinese Hamster Ovary cells were transfected with CRTH2 or DP receptors (CHO/CRTH2 and CHO/DP) and were maintained in culture in a humidified atmosphere at 37° C. (5% CO2) in Minimum Essential Medium (MEM) supplemented with 10% foetal bovine serum, 2 mM glutamine, and 1 mg ml^−1 active G418. The cells were passaged every 2-3 days. For radioligand binding assay, cells were prepared in triple-layer flasks or in 175 cm^2 square flasks (for membrane preparation). For calcium mobilisation assay, cells were grown in a 96 well plate 24 h prior to the assay at a density of 80,000 cells per well.
(§2) Membranes were prepared either from CHO/CRTH2 and CHO/DP cells, or from platelets (as a source of TP receptors). CHO cells grown to confluency were washed with PBS and detached using a Versene solution (15 ml per flask). When the cells were grown in 175 cm^2 square flask, they were collected by scrapping in PBS. The cell suspensions were centrifuged (1,700 rpm, 10 min, 4° C.) and resuspended in 15 ml of buffer (1×HBSS, supplemented with 10 mM HEPES, pH 7.3). Cell suspensions were then homogenised using an Ultra Turrax at setting 4-6 for 20 s. The homogenate was centrifuged at 1,700 rpm for 10 min and the supernatant was collected and centrifuged at 20,000 rpm for 1 h at 4° C. The resulting pellet was resuspended in buffer and stored at −80° C. in aliquots of 200-500 μl. The protein concentration was determined by the method of Bradford (1976), using bovine serum albumin as standard. The platelets were washed by centrifugation at 600×g for 10 min and resuspended in ice-cold assay buffer (10 mM Tris-HCl, pH 7.4, 5 mM Glucose, 120 mM NaCl, 10 μM indomethacin) and directly centrifuged at 20,000 rpm for 30 min at 4° C. The resulting pellet was treated as described above.
(§3) [3H]PGD2 (160 Ci/mmol) binding experiments were performed on membranes prepared as described above. Assays were performed in a final volume of 100 μl of buffer (1×HBSS/HEPES 10 mM, pH 7.3). Cell membranes (15 μg). Cell membranes […] were preincubated at room temperature with varying concentration of competing ligand for 15 min. [3H]PGD2 ([…]) was then added and the incubation continued for a further one hour at room temperature. The reaction was terminated by the addition of 200 μl ice-cold assay buffer to each well, followed by rapid filtration through Whatman GF/B glass fibre filters using a Unifilter Cell harvester (PerkinElmer Life Sciences) and six washes of 300 μl of ice-cold buffer. The Unifilter plates were dried at room temperature for at least 1 h and the radioactivity retained on the filters was determined on a Beta Trilux counter (PerkinElmer Life Sciences), following addition of 40 μl of Optiphase Hi-Safe 3 (Wallac) liquid scintillation. Non specific binding was defined in the presence of […] unlabelled PGD2. Assays were performed in duplicate.

In test [2] the target is T1, CRTH2. The test can be described thus: Calcium mobilisation assay in CHO/CRTH2 cells (PGD2-induced calcium flux). The format is cell-based. The method, then: as §1
Cells were seeded onto poly-D-lysine coated 96-well plates at a density of 80,000 cells per well and incubated at 37° C. overnight to allow the cells to adhere. Cells were washed twice with HBSS and incubated for 1 h at 37° C. in 100 μl HBSS and 100 μl calcium-3-dye (Molecular Devices) solution, supplemented with 4 mM probenecid. Changes in fluorescence were monitored over a 50 s time course with agonist addition at 17s using a Flexstation (Molecular Devices).
A general note: Calcium assays in cells follow changes in intracellular calcium, usually with a dye or a luminescent sensor.

Another test has as its target T2, DP receptor (Homo sapiens, UniProt Q13258).
T2 construct: expressed in transfected cells; host or cells: Chinese Hamster Ovary (CHO) cells, G418 selected
T2 sequence (Q13258 1-359): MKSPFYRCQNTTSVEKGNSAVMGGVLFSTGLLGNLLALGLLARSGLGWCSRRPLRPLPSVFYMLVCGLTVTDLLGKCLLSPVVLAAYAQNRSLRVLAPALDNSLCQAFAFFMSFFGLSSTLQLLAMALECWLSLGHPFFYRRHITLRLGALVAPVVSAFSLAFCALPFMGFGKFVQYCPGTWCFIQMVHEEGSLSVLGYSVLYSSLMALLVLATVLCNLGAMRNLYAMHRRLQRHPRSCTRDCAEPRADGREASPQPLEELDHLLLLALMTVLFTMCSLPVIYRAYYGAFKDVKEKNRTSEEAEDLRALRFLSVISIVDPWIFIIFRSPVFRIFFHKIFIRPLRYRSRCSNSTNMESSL
The test can be described thus: [3H]PGD2 radioligand binding on CHO/DP cell membranes. The conditions noted are these: competition versus [3H]PGD2, CHO/DP membranes. The method, then: as §1, §2, §3

Take `Cc1c(S(=O)(=O)CC(=O)O)c2cc(F)ccc2n1CC(=O)O` [Compound 3, (3-Carboxymethanesulfonyl-5-fluoro-2-methyl-indol-1-yl)-acetic acid]: on CRTH2 [1], the Ki (as a rule, a dissociation constant, usually derived from enzyme kinetics or from competition with a known ligand) came out at 2000 nM.

For the molecule `Cc1c(S(=O)(=O)CC(N)=O)c2cc(F)ccc2n1CC(=O)O` [Compound 4, (3-Carbamoylmethanesulfonyl-5-fluoro-2-methyl-indol-1-yl)-acetic acid], the affinity on CRTH2 [1], expressed as Ki, was 2300 nM.

As for `Cc1c(S(=O)(=O)c2nc3ccccc3s2)c2cc(F)ccc2n1CC(=O)O` [Compound 6, [3-(Benzothiazole-2-sulfonyl)-5-fluoro-2-methyl-indol-1-yl]-acetic acid], at CRTH2 [1], the affinity, expressed as Ki, was 209 nM. Further, the IC50 (in general, the concentration that gives 50% inhibition) on CRTH2 [2] (inhibition of PGD2-induced calcium flux, read-out: CRTH2 Ca flux IC50) was 345 nM.

Take `Cc1c(S(=O)(=O)c2cccc3cccnc23)c2cc(F)ccc2n1CC(=O)O` [Compound 9, [5-Fluoro-2-methyl-3-(quinolin-8-ylsulfonyl)-indol-1-yl]-acetic acid]: the values for the Ki on CRTH2 [1] and on DP receptor were 254 nM and more than 10000 nM, respectively.

For the molecule `Cc1c(S(=O)(=O)NCc2ccccc2)c2cc(F)ccc2n1CC(=O)O` [Compound 15, (3-Benzylsulfamoyl-5-fluoro-2-methyl-indol-1-yl)-acetic acid], the Ki was 278 nM at CRTH2 [1] and more than 10000 nM on DP receptor.

`COc1ccccc1NS(=O)(=O)c1c(C)n(CC(=O)O)c2ccc(F)cc12` [Compound 16, [5-Fluoro-3-(2-methoxy-phenylsulfamoyl)-2-methyl-indol-1-yl]-acetic acid]: the values for the Ki at CRTH2 [1] and at DP receptor were 771 nM and more than 10000 nM, respectively.

For the molecule `COc1ccc(NS(=O)(=O)c2c(C)n(CC(=O)O)c3ccc(F)cc23)cc1` [Compound 17, [5-Fluoro-3-(4-methoxy-phenylsulfamoyl)-2-methyl-indol-1-yl]-acetic acid], the figures for the Ki at CRTH2 [1] and on DP receptor were 1450 nM and more than 10000 nM, respectively.

For `Cc1c(S(=O)(=O)Nc2ccccc2)c2cc(F)ccc2n1CC(=O)O` [Compound 18, (5-Fluoro-2-methyl-3-phenylsulfamoyl-indol-1-yl)-acetic acid], the Ki on CRTH2 [1] was 236 nM; on DP receptor, more than 10000 nM.

Regarding `Cc1c(S(=O)(=O)NCc2ccc(Cl)c(Cl)c2)c2cc(F)ccc2n1CC(=O)O` [Compound 19, [3-(3,4-Dichloro-benzylsulfamoyl)-5-fluoro-2-methyl-indol-1-yl]-acetic acid], the inhibition constant (Ki) on CRTH2 [1] was 181 nM; at DP receptor it was more than 10000 nM.

For the molecule `COc1cccc(NS(=O)(=O)c2c(C)n(CC(=O)O)c3ccc(F)cc23)c1` [Compound 20, [5-Fluoro-3-(3-methoxy-phenylsulfamoyl)-2-methyl-indol-1-yl]-acetic acid], the results for the Ki on CRTH2 [1] and on DP receptor were 531 nM and more than 10000 nM, respectively.

For `Cc1ccc(NS(=O)(=O)c2c(C)n(CC(=O)O)c3ccc(F)cc23)cc1` [Compound 22, (5-Fluoro-2-methyl-3-p-tolylsulfamoyl-indol-1-yl)-acetic acid], the Ki was 1240 nM at CRTH2 [1] and more than 10000 nM at DP receptor.

Take `Cc1c(S(=O)(=O)NCc2ccc(Cl)cc2)c2cc(F)ccc2n1CC(=O)O` [Compound 23, [3-(4-Chloro-benzylsulfamoyl)-5-fluoro-2-methyl-indol-1-yl]-acetic acid]: the Ki at CRTH2 [1] is 164 nM; at DP receptor, more than 10000 nM.

Consider `Cc1c(S(=O)(=O)N(C)Cc2ccccc2)c2cc(F)ccc2n1CC(=O)O` [Compound 24, [3-(Benzyl-methyl-sulfamoyl)-5-fluoro-2-methyl-indol-1-yl]-acetic acid], for which the Ki at CRTH2 [1] was 119 nM; on DP receptor, more than 10000 nM.

On to `Cc1c(S(=O)(=O)Nc2cccnc2)c2cc(F)ccc2n1CC(=O)O` [Compound 25, [5-Fluoro-2-methyl-3-(pyridin-3-ylsulfamoyl)-indol-1-yl]-acetic acid], for which the Ki at CRTH2 [1] is 4250 nM; on DP receptor, more than 10000 nM.

On to `CCCCC[C@H](O)/C=C/[C@H]1C(=O)C[C@H](O)[C@@H]1C/C=C\CCCC(=O)O` [PGD2, prostaglandin D2, reference compound], for which the EC50 (commonly the concentration at which the effect is half-maximal) on CRTH2 [2] (agonist, n=3, read-out: EC50 for increase in intracellular Ca2+ mobilisation) came to 2.4 nM.
